Results: patent publication US20260007681A1, “INDOLE DERIVATIVES AS ESTROGEN RECEPTOR DEGRADERS” (REGENTS OF THE UNIVERSITY OF MICHIGAN, priority 2022, published 2026)
Like-named read-outs stand apart in the source and are kept apart here.

Experiments:
[1] = Cell growth assay (WST-8) (Compounds B1-B278); format: cell-based; conditions: T47D cell line, WST-8, 4 days, read-out: Cell Growth Inhibition in T47D cell line IC50
How it was run: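 Read-out is WST-8 absorbance at 450 nm (2.5 h, 37° C) as a fraction of vehicle control, from three separate repeats. Compound exposure lasted 4 days, starting one day after plating 1500 cells/well.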

ER = ER (Homo sapiens (Human), UniProt P03372); assay: In-cell western blot analysis of relative ER percentage (Compounds B1-B278); format: cell-based; conditions: ER degradation, 16 hours, read-out: ICW DC50
Sequence of ER (P03372 whole entry): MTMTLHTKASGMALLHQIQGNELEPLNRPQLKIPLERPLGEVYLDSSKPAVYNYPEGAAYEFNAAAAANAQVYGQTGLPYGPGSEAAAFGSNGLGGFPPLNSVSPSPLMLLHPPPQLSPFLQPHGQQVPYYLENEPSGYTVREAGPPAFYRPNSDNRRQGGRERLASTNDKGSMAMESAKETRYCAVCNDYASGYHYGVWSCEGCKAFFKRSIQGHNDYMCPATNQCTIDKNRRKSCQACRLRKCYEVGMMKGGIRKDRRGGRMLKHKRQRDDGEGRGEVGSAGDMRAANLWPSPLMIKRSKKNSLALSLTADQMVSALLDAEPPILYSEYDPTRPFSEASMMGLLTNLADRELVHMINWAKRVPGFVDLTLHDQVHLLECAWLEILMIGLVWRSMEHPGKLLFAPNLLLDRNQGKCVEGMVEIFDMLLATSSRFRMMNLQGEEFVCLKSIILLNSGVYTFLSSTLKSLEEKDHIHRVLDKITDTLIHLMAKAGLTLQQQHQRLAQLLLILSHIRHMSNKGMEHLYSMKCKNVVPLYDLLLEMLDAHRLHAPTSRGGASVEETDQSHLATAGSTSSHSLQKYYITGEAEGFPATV
How it was run: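 In-cell western: after 16 h compound exposure (0.5% DMSO final), fixed and permeabilized cells are probed with anti-ER plus anti-GAPDH and near-infrared secondaries. Relative ER percentage compares treated wells against untreated and DMSO wells taken as 100%; seeding 40,000 or 10,000 cells/well.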

Row | DC50 (ER) [nM] | SMILES | IC50 ([1]; 96 h) [nM] | IC50 [1] [nM]
1 | 10 to 100 | C[C@@H]1Cc2c([nH]c3ccccc23)[C@@H](c2cnc(N3CC4(CCC(CN5CCN6c7ccc8c(c7OC[C@H]6C5)CN(C5CCC(=O)NC5=O)C8=O)CC4)C3)nc2)N1CC1(F)CC1 (stereo partly drawn) [Compound B260, 3-((R)-7-((2-(5-((1R,3R)-2-((1-fluorocyclopropyl)methyl)-3-methyl-2,3,4,9-tetrahydro-1H-pyrido[3,4-b]indol-1-yl)pyrimidin-2-yl)-2-azaspiro[3.5]nonan-7-yl)methyl)-1-oxo-1,3,5,5a,6,7,8,9-octahydro-2H-pyrazino[1′,2′:4,5][1,4]oxazino[2,3-e]isoindol-2-yl)piperidine-2,6-dione] | 1 to 10 | 
2 | > 100 | C[C@@H]1Cc2c([nH]c3ccccc23)[C@@H](c2cnc(N3CCC(CN4CCN5c6ccc7c(c6OC[C@H]5C4)CN(C4CCC(=O)NC4=O)C7=O)CC3)nc2)N1CC(F)F (mixture of isomers) [Compound B255, 3-((RS)-7-((1-(5-((1R,3R)-2-(2,2-difluoroethyl)-3-methyl-2,3,4,9-tetrahydro-1H-pyrido[3,4-b]indol-1-yl)pyrimidin-2-yl)piperidin-4-yl)methyl)-1-oxo-1,3,5,5a,6,7,8,9-octahydro-2H-pyrazino[1′,2′:4,5][1,4]oxazino[2,3-e]isoindol-2-yl)piperidine-2,6-dione] |  | < 1
3 | 10 to 100 | C[C@@H]1Cc2c([nH]c3ccccc23)[C@@H](c2cnc(N3CC[C@H](CCN4CCN5c6cc7c(cc6OC[C@@H]5C4)C(=O)N(C4CCC(=O)NC4=O)C7)C3)nc2)N1CC(F)F (stereo partly drawn) [Compound B122, 3-((S)-3-(2-((S)-1-(5-((1R,3R)-2-(2,2-difluoroethyl)-3-methyl-2,3,4,9-tetrahydro-1H-pyrido[3,4-b]indol-1-yl)pyrimidin-2-yl)pyrrolidin-3-yl)ethyl)-8-oxo-1,2,3,4,4a,5,8,10-octahydro-9H-pyrazino[1′,2′:4,5][1,4]oxazino[2,3-f]isoindol-9-yl)piperidine-2,6-dione] | 1 to 10 | 
4 | 10 to 100 | C[C@@H]1Cc2c([nH]c3ccccc23)[C@@H](c2ccc(N3CCC4(CC3)CC(CN3CCN5c6ccc7c(c6OC[C@H]5C3)CN(C3CCC(=O)NC3=O)C7=O)CO4)cn2)N1CC(F)(F)F (stereo partly drawn) [Compound B268, (3S)-3-((5aR)-7-((8-(6-((1S,3R)-3-methyl-2-(2,2,2-trifluoroethyl)-2,3,4,9-tetrahydro-1H-pyrido[3,4-b]indol-1-yl)pyridin-3-yl)-1-oxa-8-azaspiro[4.5]dccan-3-yl)methyl)-1-oxo-1,3,5,5a,6,7,8,9-octahydro-2H-pyrazino[1′,2′:4,5][1,4]oxazino[2,3-e]isoindol-2-yl)piperidine-2,6-dione] | 1 to 10 | 
5 | 10 to 100 | C[C@@H]1Cc2c([nH]c3ccccc23)[C@@H](c2c(F)cc(N3CCC(CN4CCN5c6ccc7c(c6OC[C@H]5C4)CN(C4CCC(=O)NC4=O)C7=O)CC3)cc2F)N1CC(F)F (mixture of isomers) [Compound B253, 3-((RS)-7-((1-(4-((1R,3R)-2-(2,2-difluoroethyl)-3-methyl-2,3,4,9-tetrahydro-1H-pyrido[3,4-b]indol-1-yl)-3,5-difluorophenyl)piperidin-4-yl)methyl)-1-oxo-1,3,5,5a,6,7,8,9-octahydro-2H-pyrazino[1′,2′:4,5][1,4]oxazino[2,3-e]isoindol-2-yl)piperidine-2,6-dione] | < 1 | 
6 | > 100 | COc1cc(N2CCC3(CCN(C(=O)CN4Cc5cc6c(cc5C4)C(=O)N(C4CCC(=O)NC4=O)C6=O)CC3)CC2)ccc1[C@@H]1c2[nH]c3ccccc3c2C[C@@H](C)N1CC(C)(C)F (stereo partly drawn) [Compound B170, 2-(2,6-dioxopiperidin-3-yl)-6-(2-(9-(4-((1R,3R)-2-(2-fluoro-2-methylpropyl)-3-methyl-2,3,4,9-tetrahydro-1H-pyrido[3,4-b]indol-1-yl)-3-methoxyphenyl)-3,9-diazaspiro[5.5]undecan-3-yl)-2-oxoethyl)-6,7-dihydropyrrolo[3,4-f]isoindole-1,3(2H,5H)-dione] | 1 to 10 | 

The remaining lines, values behind:

Row | SMILES | DC50 (ER) [nM] | IC50 ([1]; 96 h) [nM] | IC50 [1] [nM]
7 | C[C@@H]1Cc2c([nH]c3ccccc23)[C@@H](c2ccc(N3CCC4(CC3)CC(CN3CCN5c6ccc7c(c6OC[C@H]5C3)CN([C@H]3CCC(=O)NC3=O)C7=O)CO4)cn2)N1CC(F)(F)F (stereo partly drawn) [Compound B146, (3S)-3-((5aR)-7-((8-(6-((1S,3R)-3-methyl-2-(2,2,2-trifluoroethyl)-2,3,4,9-tetrahydro-1H-pyrido[3,4-b]indol-1-yl)pyridin-3-yl)-1-oxa-8-azaspiro[4.5]decan-3-yl)methyl)-1-oxo-1,3,5,5a,6,7,8,9-octahydro-2H-pyrazino[1′,2′:4,5][1,4]oxazino[2,3-e]isoindol-2-yl)piperidine-2,6-dione] | 10 to 100 | 1 to 10 | 
8 | C[C@@H]1Cc2c([nH]c3ccccc23)[C@@H](c2cnc(N3CCC4(CCC(CN5CCN6c7ccc8c(c7OC[C@H]6C5)CN(C5CCC(=O)NC5=O)C8=O)CC4)CC3)nc2)N1CC(F)F (stereo partly drawn) [Compound B161, 3-((R)-7-((3-(5-((1R,3R)-2-(2,2-difluoroethyl)-3-methyl-2,3,4,9-tetrahydro-1H-pyrido[3,4-b]indol-1-yl)pyrimidin-2-yl)-3-azaspiro[5.5]undecan-9-yl)methyl)-1-oxo-1,3,5,5a,6,7,8,9-octahydro-2H-pyrazino[1′,2′:4,5][1,4]oxazino[2,3-e]isoindol-2-yl)piperidine-2,6-dione] | > 100 | > 10 | 
9 | C[C@@H]1Cc2c([nH]c3ccccc23)[C@@H](c2cnc(N3CCC4(CCC(CN5CCN6c7cc8c(cc7OC[C@@H]6C5)C(=O)N(C5CCC(=O)NC5=O)C8)CC4)CC3)nc2)N1CC(F)F (stereo partly drawn) [Compound B136, 3-((S)-3-((3-(5-((1R,3R)-2-(2,2-difluoroethyl)-3-methyl-2,3,4,9-tetrahydro-1H-pyrido[3,4-b]indol-1-yl)pyrimidin-2-yl)-3-azaspiro[5.5]undecan-9-yl)methyl)-8-oxo-1,2,3,4,4a,5,8,10-octahydro-9H-pyrazino[1′,2′:4,5][1,4]oxazino[2,3-f]isoindol-9-yl)piperidine-2,6-dione] | 10 to 100 | > 10 | 
10 | C[C@@H]1Cc2c([nH]c3ccccc23)[C@@H](c2c(F)cc(N3CCC(CN4CCN5c6ccc7c(c6OC[C@H]5C4)CN(C4CCC(=O)NC4=O)C7=O)CC3)cc2F)N1CC(C)(C)F (mixture of isomers) [Compound B257, 3-((RS)-7-((1-(3,5-difluoro-4-((1R,3R)-2-(2-fluoro-2-methylpropyl)-3-methyl-2,3,4,9-tetrahydro-1H-pyrido[3,4-b]indol-1-yl)phenyl)piperidin-4-yl)methyl)-1-oxo-1,3,5,5a,6,7,8,9-octahydro-2H-pyrazino[1′,2′:4,5][1,4]oxazino[2,3-e]isoindol-2-yl)piperidine-2,6-dione] | 10 to 100 | < 1 | 
11 | COc1cc(N2CCC3(CCN(C(=O)CN4Cc5cc6c(cc5C4)C(=O)N(C4CCC(=O)NC4=O)C6=O)CC3)CC2)ccc1[C@@H]1c2[nH]c3ccccc3c2C[C@@H](C)N1CC(F)F (stereo partly drawn) [Compound B128, 6-(2-(9-(4-((1R,3R)-2-(2,2-difluoroethyl)-3-methyl-2,3,4,9-tetrahydro-1H-pyrido[3,4-b]indol-1-yl)-3-methoxyphenyl)-3,9-diazaspiro[5.5]undecan-3-yl)-2-oxoethyl)-2-(2,6-dioxopiperidin-3-yl)-6,7-dihydropyrrolo[3,4-f]isoindole-1,3(2H,5H)-dione] | < 10 | 1 to 10 | 
12 | C[C@@H]1Cc2c([nH]c3ccccc23)[C@@H](c2cnc(N3CCC4(CC3)CC(CN3CCN5c6ccc7c(c6OC[C@H]5C3)CN(C3CCC(=O)NC3=O)C7=O)C4)nc2)N1CC(F)F (stereo partly drawn) [Compound B181, 3-((R)-7-((7-(5-((1R,3R)-2-(2,2-difluoroethyl)-3-methyl-2,3,4,9-tetrahydro-1H-pyrido[3,4-b]indol-1-yl)pyrimidin-2-yl)-7-azaspiro[3.5]nonan-2-yl)methyl)-1-oxo-1,3,5,5a,6,7,8,9-octahydro-2H-pyrazino[1′,2′:4,5][1,4]oxazino[2,3-e]isoindol-2-yl)piperidine-2,6-dione] | < 10 | < 1 | 
13 | C[C@@H]1Cc2c([nH]c3ccccc23)[C@@H](c2cnc(N3CCC4(CCC(N5CCN6c7ccc8c(c7OC[C@H]6C5)CN(C5CCC(=O)NC5=O)C8=O)CC4)CC3)nc2)N1CC(C)(C)F (stereo partly drawn) [Compound B164, 3-((R)-7-(3-(5-((1R,3R)-2-(2-fluoro-2-methylpropyl)-3-methyl-2,3,4,9-tetrahydro-1H-pyrido[3,4-b]indol-1-yl)pyrimidin-2-yl)-3-azaspiro[5.5]undecan-9-yl)-1-oxo-1,3,5,5a,6,7,8,9-octahydro-2H-pyrazino[1′,2′:4,5][1,4]oxazino[2,3-e]isoindol-2-yl)piperidine-2,6-dione] | > 100 | 1 to 10 | 
14 | C[C@@H]1Cc2c([nH]c3ccccc23)[C@@H](c2cnc(N3CCC4(CC3)CC(CN3CCN5c6ccc7c(c6OC[C@H]5C3)CN(C3CCC(=O)NC3=O)C7=O)C4)nc2)N1CC(F)(F)CO (stereo partly drawn) [Compound B153, 3-((R)-7-((7-(5-((1R,3R)-2-(2,2-difluoro-3-hydroxypropyl)-3-methyl-2,3,4,9-tetrahydro-1H-pyrido[3,4-b]indol-1-yl)pyrimidin-2-yl)-7-azaspiro[3.5]nonan-2-yl)methyl)-1-oxo-1,3,5,5a,6,7,8,9-octahydro-2H-pyrazino[1′,2′:4,5][1,4]oxazino[2,3-e]isoindol-2-yl)piperidine-2,6-dione] | 10 to 100 | 1 to 10 | 
